Measurements: patent publication US12478617B2, “Lipidated peptide inhibitors of interleukin-23 receptor” (JANSSEN BIOTECH, INC., priority 2021, dated 2025)
Starred links: 1 amine or outer side, 2 acyl side, 3 side chain; linkers in the order of their positions; H or OH if unused. Positions of bridges follow the written chain, without caps; N, C: chain ends. Non-standard residues stand in square brackets, D forms with d. Residues, ends and D or L forms follow the SMILES beside them. Groups on a side chain read outwards from the residue. *: point of attachment. Trp(7-Me) = Cc1cccc2c(C[C@H](N)C(=O)O)c[nH]c12; C18 diacid = O=C(O)CCCCCCCCCCCCCCCCC(=O)*; C16 diacid = O=C(O)CCCCCCCCCCCCCCC(=O)*; γGlu = O=C(O)[C@H](CCC(=O)[*:2])N[*:1]; 2Nal = N[C@@H](Cc1ccc2ccccc2c1)C(=O)O; AEF = NCCOc1ccc(C[C@H](N)C(=O)O)cc1; 3Pal = N[C@@H](Cc1cccnc1)C(=O)O; NMeK = CN[C@@H](CCCCN)C(=O)O; Pen = CC(C)(S)[C@H](N)C(=O)O; Thp = NC1(C(=O)O)CCOCC1; AEEA = NCCOCCOCC(=O)O; Sar = CNCC(=O)O

The compounds below were run against T1, IL-23R (Homo sapiens, UniProt Q5VWK5) (assay: IL23R Reporter Assay).
T1 construct: HEK293 cells containing IL-23R, IL-12RP31 and a firefly luciferase reporter gene driven by a STAT-inducible promoter (Promega); host or cells: HEK293
T1 sequence (Q5VWK5 24-629): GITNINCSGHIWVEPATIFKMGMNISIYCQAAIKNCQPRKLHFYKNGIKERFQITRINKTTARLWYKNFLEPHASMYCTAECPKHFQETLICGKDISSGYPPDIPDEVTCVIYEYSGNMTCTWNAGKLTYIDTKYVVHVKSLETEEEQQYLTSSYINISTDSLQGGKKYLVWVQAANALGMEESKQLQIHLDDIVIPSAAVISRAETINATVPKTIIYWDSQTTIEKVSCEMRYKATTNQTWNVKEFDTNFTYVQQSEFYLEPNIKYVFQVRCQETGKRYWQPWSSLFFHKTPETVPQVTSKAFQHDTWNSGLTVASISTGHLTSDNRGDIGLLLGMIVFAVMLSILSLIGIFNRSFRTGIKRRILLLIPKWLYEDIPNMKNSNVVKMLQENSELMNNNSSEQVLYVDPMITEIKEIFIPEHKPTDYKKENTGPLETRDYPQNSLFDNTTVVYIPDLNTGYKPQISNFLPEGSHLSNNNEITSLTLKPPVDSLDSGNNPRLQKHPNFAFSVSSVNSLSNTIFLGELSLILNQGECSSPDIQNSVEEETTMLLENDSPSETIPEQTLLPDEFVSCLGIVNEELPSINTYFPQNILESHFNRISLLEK
Type: cell-based
From the text: IL-23 binding to IL-23 receptors results in the activation of the Signal Transducer and Activator of Transcription 3 (STAT3) by phosphorylation and downstream signaling events. Accordingly. the ability of the inhibitors described herein to block IL-23 action can be assessed by monitoring the status of STAT3 activation in response to IL-23. This may be accomplished in reporter cell assays or in intact cells such as peripheral blood mononuclear cells (PBMCs).
Compounds were serially diluted in 100% (v/v) DMSO) and plated using an Echo acoustic dispenser (Labcyte) into 1536-well non-treated black assay plates (Corning #9146). […] After 5 h at 37° C., 5% CO2, 95% relative humidity, cells were placed at 20° C. and treated with BioGlo reagent (Promega) according to the Manufacturer's instructions. Luminescence was measured on a Pherastar FSX (BMG LabTech).

| Compound | IC50 |
| --- | --- |
| CC(=O)NCCCC[C@@H]1NC(=O)[C@H](Cc2c[nH]c3c(C)cccc23)NC(=O)[C@H]([C@@H](C)O)NC(=O)[C@H](CC(N)=O)NC(=O)[C@@H](NC(=O)[C@@H](CCCNC(=N)N)NC(C)=O)C(C)(C)SSC(C)(C)[C@@H](C(=O)N[C@@H](Cc2ccc(OCCN)cc2)C(=O)N[C@@H](Cc2ccc3ccccc3c2)C(=O)NC2(C(=O)N[C@@H](CCC(=O)O)C(=O)N[C@@H](CC(N)=O)C(=O)N[C@@H](Cc3cccnc3)C(=O)N(C)CC(=O)N[C@@H](CCCCNC(=O)COCCOCCNC(=O)COCCOCCNC(=O)CC[C@H](NC(=O)CCCCCCCCCCCCCCC(=O)O)C(=O)O)C(N)=O)CCOCC2)NC1=O [Example 17, MeCO-r-Pen*-N-T-7MeW-K(Ac)-Pen*-AEF-2Nal-THP-E-N-3Pya-Sar-K(PEG2PEG2gEC16OH)-CONH2] (Ac-[dR][Pen]NT[Trp(7-Me)]K(Ac)[Pen][AEF][2Nal][Thp]EN[3Pal][Sar]K([AEEA-AEEA-γGlu-C16 diacid])-NH2; disulfide 2-7) | 36 pM |
| CC(=O)NCCCC[C@@H]1NC(=O)[C@H](Cc2c[nH]c3c(C)cccc23)NC(=O)[C@H]([C@@H](C)O)NC(=O)[C@H](CCCCNC(=O)COCCOCCNC(=O)COCCOCCNC(=O)CC[C@H](NC(=O)CCCCCCCCCCCCCCCCC(=O)O)C(=O)O)NC(=O)[C@@H](NC(=O)[C@@H](CCCNC(=N)N)NC(C)=O)C(C)(C)SSC(C)(C)[C@@H](C(=O)N[C@@H](Cc2ccc(OCCN)cc2)C(=O)N[C@@H](Cc2ccc3ccccc3c2)C(=O)NC2(C(=O)N[C@@H](CCC(=O)O)C(=O)N[C@@H](CC(N)=O)C(=O)N[C@@H](Cc3cccnc3)C(=O)N(C)CC(N)=O)CCOCC2)NC1=O [Example 20, MeCO-r-Pen*-K(PEG2PEG2gEC18OH)-T-7MeW-K(Ac)-Pen*-AEF-2Nal-THP-E-N-3Pya-Sar-CONH2] (Ac-[dR][Pen]K([AEEA-AEEA-γGlu-C18 diacid])T[Trp(7-Me)]K(Ac)[Pen][AEF][2Nal][Thp]EN[3Pal][Sar]-NH2; disulfide 2-7) | 67 pM |
| CC(=O)NCCCC[C@@H]1NC(=O)[C@H](Cc2c[nH]c3c(C)cccc23)NC(=O)[C@H]([C@@H](C)O)NC(=O)[C@H](CC(N)=O)NC(=O)[C@@H](NC(=O)[C@@H](CCCNC(=N)N)NC(=O)COCCOCCNC(=O)COCCOCCNC(=O)CC[C@H](NC(=O)CCCCCCCCCCCCCCC(=O)O)C(=O)O)C(C)(C)SSC(C)(C)[C@@H](C(=O)N[C@@H](Cc2ccc(OCCN)cc2)C(=O)N[C@@H](Cc2ccc3ccccc3c2)C(=O)NC2(C(=O)N[C@@H](CCCCNC(C)=O)C(=O)N[C@@H](CC(N)=O)C(=O)N[C@@H](Cc3cccnc3)C(=O)N(C)CC(N)=O)CCOCC2)NC1=O [Example 24, HOC16gEPEG2PEG2-r-Pen*-N-T-7MeW-K(Ac)-Pen*-AEF-2Nal-THP-K(Ac)-N-3Pya-Sar-CONH2] ({C16 diacid-γGlu-AEEA-AEEA}-[dR][Pen]NT[Trp(7-Me)]K(Ac)[Pen][AEF][2Nal][Thp]K(Ac)N[3Pal][Sar]-NH2; disulfide 2-7) | 17 pM |
| CC(=O)NCCCC[C@@H]1NC(=O)[C@H](Cc2c[nH]c3c(C)cccc23)NC(=O)[C@H]([C@@H](C)O)NC(=O)[C@H](CC(N)=O)NC(=O)[C@@H](NC(=O)[C@@H](CCCNC(=N)N)NC(C)=O)C(C)(C)SSC(C)(C)[C@@H](C(=O)N[C@@H](Cc2ccc(OCCNC(=O)COCCOCCNC(=O)COCCOCCNC(=O)CC[C@H](NC(=O)CCCCCCCCCCCCCCC(=O)O)C(=O)O)cc2)C(=O)N[C@@H](Cc2ccc3ccccc3c2)C(=O)NC2(C(=O)N[C@@H](CCCCNC(C)=O)C(=O)N[C@@H](CC(N)=O)C(=O)N[C@@H](Cc3cccnc3)C(=O)N(C)CC(N)=O)CCOCC2)NC1=O [Example 26, MeCO-r-Pen*-N-T-7MeW-K(Ac)-Pen*-AEF(PEG2PEG2gEC16OH)-2Nal-THP-K(Ac)-N-3Pya-Sar-CONH2] (Ac-[dR][Pen]NT[Trp(7-Me)]K(Ac)[Pen][AEF]([AEEA-AEEA-γGlu-C16 diacid])[2Nal][Thp]K(Ac)N[3Pal][Sar]-NH2; disulfide 2-7) | 25 pM |
| CC(=O)NCCCC[C@@H]1NC(=O)[C@H](Cc2c[nH]c3c(C)cccc23)NC(=O)[C@H]([C@@H](C)O)NC(=O)[C@H](CC(N)=O)NC(=O)[C@@H](NC(=O)[C@@H](CCCNC(=N)N)NC(C)=O)C(C)(C)SSC(C)(C)[C@@H](C(=O)N[C@@H](Cc2ccc(OCCN)cc2)C(=O)N[C@@H](Cc2ccc3ccccc3c2)C(=O)NC2(C(=O)N[C@@H](CCCCNC(=O)COCCOCCNC(=O)COCCOCCNC(=O)CC[C@H](NC(=O)CCCCCCCCCCCCCCCCC(=O)O)C(=O)O)C(=O)N[C@@H](CC(N)=O)C(=O)N[C@@H](Cc3cccnc3)C(=O)N(C)CC(N)=O)CCOCC2)NC1=O [Example 27, MeCO-r-Pen*-N-T-7MeW-K(Ac)-Pen*-AEF-2Nal-THP-K(PEG2PEG2gEC18OH)-N-3Pya-Sar-CONH2] (Ac-[dR][Pen]NT[Trp(7-Me)]K(Ac)[Pen][AEF][2Nal][Thp]K([AEEA-AEEA-γGlu-C18 diacid])N[3Pal][Sar]-NH2; disulfide 2-7) | 59 pM |
| CC(=O)NCCCC[C@@H]1NC(=O)[C@H](Cc2c[nH]c3c(C)cccc23)NC(=O)[C@H]([C@@H](C)O)NC(=O)[C@H](CC(N)=O)NC(=O)[C@@H](NC(C)=O)C(C)(C)SSC(C)(C)[C@@H](C(=O)N[C@@H](Cc2ccc(OCCN)cc2)C(=O)N[C@@H](Cc2ccc3ccccc3c2)C(=O)NC2(C(=O)N[C@@H](CCCCNC(=O)CC[C@H](NC(=O)CCCCCCCCCCCCCCC(=O)O)C(=O)O)C(=O)N[C@@H](CC(N)=O)C(=O)N[C@@H](Cc3cccnc3)C(=O)N(C)CC(N)=O)CCOCC2)NC1=O [Example 29, MeCO-Pen*-N-T-7MeW-K(Ac)-Pen*-AEF-2Nal-THP-K(gEC16OH)-N-3Pya-Sar-CONH2] (Ac-[Pen]NT[Trp(7-Me)]K(Ac)[Pen][AEF][2Nal][Thp]K([γGlu-C16 diacid])N[3Pal][Sar]-NH2; disulfide 1-6) | 60 pM |

More lines, now with the values ahead:

| IC50 | Compound |
| --- | --- |
| 37 pM | CC(=O)NCCCC[C@@H]1NC(=O)[C@H](Cc2c[nH]c3c(C)cccc23)NC(=O)[C@H]([C@@H](C)O)NC(=O)[C@H](CC(N)=O)NC(=O)[C@@H](NC(C)=O)C(C)(C)SSC(C)(C)[C@@H](C(=O)N[C@@H](Cc2ccc(OCCN)cc2)C(=O)N[C@@H](Cc2ccc3ccccc3c2)C(=O)NC2(C(=O)N[C@@H](CCCCNC(=O)COCCOCCNC(=O)COCCOCCNC(=O)CC[C@H](NC(=O)CCCCCCCCCCCCCCC(=O)O)C(=O)O)C(=O)N[C@@H](CC(N)=O)C(=O)N[C@@H](Cc3cccnc3)C(=O)N(C)CC(N)=O)CCOCC2)NC1=O [Example 19, MeCO-Pen*-N-T-7MeW-K(Ac)-Pen*-AEF-2Nal-THP-K(PEG2PEG2gEC16OH)-N-3Pya-Sar-CONH2] (Ac-[Pen]NT[Trp(7-Me)]K(Ac)[Pen][AEF][2Nal][Thp]K([AEEA-AEEA-γGlu-C16 diacid])N[3Pal][Sar]-NH2; disulfide 1-6) |
| 33 pM | CC(=O)NCCCC[C@@H]1NC(=O)[C@H](Cc2c[nH]c3c(C)cccc23)NC(=O)[C@H]([C@@H](C)O)NC(=O)[C@H](CCCCNC(=O)COCCOCCNC(=O)COCCOCCNC(=O)CC[C@H](NC(=O)CCCCCCCCCCCCCCC(=O)O)C(=O)O)NC(=O)[C@@H](NC(=O)[C@@H](CCCNC(=N)N)NC(C)=O)C(C)(C)SSC(C)(C)[C@@H](C(=O)N[C@@H](Cc2ccc(OCCN)cc2)C(=O)N[C@@H](Cc2ccc3ccccc3c2)C(=O)NC2(C(=O)N[C@@H](CCC(=O)O)C(=O)N[C@@H](CC(N)=O)C(=O)N[C@@H](Cc3cccnc3)C(=O)N(C)CC(N)=O)CCOCC2)NC1=O [Example 21, MeCO-r-Pen*-K(PEG2PEG2gEC16OH)-T-7MeW-K(Ac)-Pen*-AEF-2Nal-THP-E-N-3Pya-Sar-CONH2] (Ac-[dR][Pen]K([AEEA-AEEA-γGlu-C16 diacid])T[Trp(7-Me)]K(Ac)[Pen][AEF][2Nal][Thp]EN[3Pal][Sar]-NH2; disulfide 2-7) |
| 26 pM | CC(=O)NCCCC[C@@H]1NC(=O)[C@H](Cc2c[nH]c3c(C)cccc23)NC(=O)[C@H]([C@@H](C)O)NC(=O)[C@H](CC(N)=O)NC(=O)[C@@H](NC(=O)[C@@H](CCCNC(=N)N)NC(C)=O)C(C)(C)SSC(C)(C)[C@@H](C(=O)N[C@@H](Cc2ccc(OCCN)cc2)C(=O)N[C@@H](Cc2ccc3ccccc3c2)C(=O)NC2(C(=O)N[C@@H](CCC(=O)O)C(=O)N[C@@H](CC(N)=O)C(=O)N[C@@H](Cc3cccnc3)C(=O)N(C)[C@@H](CCCCNC(=O)COCCOCCNC(=O)COCCOCCNC(=O)CC[C@H](NC(=O)CCCCCCCCCCCCCCC(=O)O)C(=O)O)C(N)=O)CCOCC2)NC1=O [Example 22, MeCO-r-Pen*-N-T-7MeW-K(Ac)-Pen*-AEF-2Nal-THP-E-N-3Pya-NMeK(PEG2PEG2gEC16OH)-CONH2] (Ac-[dR][Pen]NT[Trp(7-Me)]K(Ac)[Pen][AEF][2Nal][Thp]EN[3Pal][NMeK]([AEEA-AEEA-γGlu-C16 diacid])-NH2; disulfide 2-7) |
